Test results reported in US9034960B2, “Antidrift composition” (Momentive Performance Materials Inc., priority 2012, dated 2015).

Assays:
[1] = Spreading/wetting: diameter of a 10 microliter drop on polystyrene dish; type: physicochemical; conditions: Table 3; aqueous herbicidal spray composition
Protocol: The spreading ability of the various superspreaders utilized herein was determined by depositing a single drop (10 microliters) of solution onto a clean, flat polystyrene dish. The polystyrene surfaces were cleaned by rinsing with isopropanol and then with deionized water. The dishes were then dried with dry nitrogen gas. The diameters of the resulting drops were then measured. Each solution was tested 2 to 4 times and the average diameter was calculated.

[2] = tested on: velvetleaf; assay: Herbicidal performance of glyphosate spray compositions sprayed on velvetleaf; type: in vivo; conditions: 1% glyphosate IPA salt
Protocol: Urea inclusion complexes containing PAM-PAA copolymer, sodium salt (PAM-PAA-Na) (Zetag 4100, BASF), both without and with Silicone A superspreader, were made from molten urea as was a comparison urea inclusion complex containing PAM and Silicone A. Aqueous herbicidal spray compositions were prepared containing 0.75% of these urea inclusion complexes and 1% glyphosate isopropylamine salt (“[…]”) herbicide and evaluated for reduction of drift, increased spreading and herbicidal performance when sprayed on velvetleaf.
A solution of 0.042% Silicone A and 1% glyphosate IPA salt (Example 26) was used as a control as was a plain 1% glyphosate IPA salt solution (Example 27).

CC(C)N.O=C(O)CNCP(=O)(O)O [Example 27, glyphosate isopropylamine salt]
Drop Spread Diameter [1]: 4.8 mm
% Control after 1 week ([2]; after 1 week): 25%
% Control after 2 weeks ([2]; after 2 weeks): 81%
